Assay results taken from patent US20130303376A1, “METHODS OF IMPROVING PLANT GROWTH” (Bayer CropScience AG, priority 2007, published 2013).
Several values for one entry are separate records, joined by “and”; a condition that tells them apart may be missing. Equal entries are not always repeated.

What was measured:
Type in all cases: in vivo
[1] = system: Solanum lycopersicum ‘Rentita’; assay: Root growth test of tomatoes under oxygen deficiency conditions in the nutrient solution; settings: 1.0 mg a.i./plant; floating box, nutrient solution not aerated (oxygen deficiency stress); average maximum root length after 12 d
Protocol: To prepare a suitable solution of the preparation, I part by weight of active substance is mixed with water to give the desired concentration.
(§1) Tomato seeds (Solanum lycopersicum ‘Rentita’) are grown in rock wool. After germination, the rock wool blocks are transferred into a floating box provided with the solution of the preparation and grown on under suitable climatic conditions.
(§2) The nutrient solution of the floating box was not aerated (oxygen deficiency stress).
After the desired period of time, the maximum length of the root per tomato plant is measured, and the average root length per floating box and treatment is calculated.

[2] = system: Solanum lycopersicum ‘Rentita’; assay: Shoot length test on tomatoes under oxygen deficiency conditions in the nutrient solution; settings: 1.0 mg a.i./plant; floating box, nutrient solution not aerated (oxygen deficiency stress); average maximum shoot length after 19 d
Protocol: To prepare a suitable solution of the preparation, 1 part by weight of active substance is mixed with water to give the desired concentration.
as §1, §2
After the desired period of time, the maximum shoot length per tomato plant is measured, and the average shoot length per floating box and treatment is calculated.

Botrytis cinerea = assay: Drench application for controlling Botrytis cinerea (grey mould) on tomatoes; set-up: Disease level, replicates 1-9 / Disease level Ø / Disease level and shed leaves: scale not given here; settings: tomato; for Disease level Ø / Shed leaves Ø / Disease level, replicates 1-9 / Shed leaves, replicates 1-9 / Disease level and shed leaves: 10 d post-inoculation, drench, all actives 5 d before inoculation; for Disease level Ø / Shed leaves Ø / Disease level, replicates 1-9 / Shed leaves, replicates 1-9: I-34/I-7 10 mg a.i./plant, fluopyram 20 mg a.i./plant; for Disease level Ø / Shed leaves Ø: mean of 9; for Disease level, replicates 1-9 / Shed leaves, replicates 1-9: single replicates; for Disease level and shed leaves: sum of the two Ø
Protocol: To control Botrytis cinerea (grey mould) on tomatoes, tomato plants which had been grown in peaty soil were treated with the compounds I-34 or I-7 alone or in combination with the fungicide fluopyram (drench application) 5 or 10 days before being inoculated with Botrvtis cinerea. [table] The inoculation with Botrytis cinerea was carried out at the stated points in time (5 or 10 days after drench application of compound I-34, I-7 and/or fluopyram). Inoculation density: 15 000 spores/ml, approx. 33 ml of spore suspension/plant. The disease level of the plants was evaluated 10 days after the inoculation with Botrytis cinerea.

[3] = system: Solanum lycopersicum ‘Rentita’; assay: Leaf biomass test on tomatoes under oxygen deficiency conditions in the nutrient solution; settings: 1.0 mg a.i./plant, floating box, nutrient solution not aerated (oxygen deficiency stress)
Excerpt: (§3) To prepare a suitable solution of the preparation, 1 part by weight of formulated product is mixed with water to give the desired concentration.
(§4) Wheat kernels (Triticum aestivum ‘Dekan’) or tomato seeds (Solanum lycopersicum ‘Rentita’) are sown in compost and grown under suitable climatic conditions in a floating box provided with the solution of the preparation. The nutrient solution of the floating box was not aerated (oxygen deficiency stress).
(§5) After the desired period of time, the leaf biomass per wheat or tomato plant is measured, and the average weight per floating box and treatment is calculated.

[4] = system: Triticum aestivum ‘Dekan’; assay: Root growth test of wheat under oxygen deficiency conditions in the nutrient solution; settings: 0.5 mg a.i./plant; floating box, nutrient solution not aerated (oxygen deficiency stress); average maximum root length after 14 d
Protocol: To prepare a suitable solution of the preparation, I part by weight of formulated product is mixed with water to give the desired concentration.
Wheat kernels (Triticum aestivum ‘Dekan’) are sown in compost and grown under suitable climatic conditions in a floating box provided with the solution of the preparation. The nutrient solution of the floating box was not aerated (oxygen deficiency stress).
After the desired period of time, the maximum length of the root per wheat plant is measured, and the average root length per floating box and treatment is calculated.

[5] = system: Triticum aestivum ‘Dekan’; assay: Leaf biomass test on wheat under oxygen deficiency conditions in the nutrient solution; settings: 0.5 mg a.i./plant, floating box, nutrient solution not aerated (oxygen deficiency stress)
Excerpt: as §3, §4, §5

| SMILES | Root growth of tomatoes: Length in cm after 12 d [1] [cm] | Shoot length of tomatoes: Length in cm after 19 d [2] [cm] | Disease level Ø (Botrytis cinerea) | Shed leaves Ø (Botrytis cinerea) | Disease level, replicates 1-9 (Botrytis cinerea) | Shed leaves, replicates 1-9 (Botrytis cinerea) | Disease level and shed leaves (Botrytis cinerea) | other results |
| --- | --- | --- | --- | --- | --- | --- | --- | --- |
| O=C1C=C(N(CCF)Cc2cnc(Cl)c(Cl)c2)CO1 [Compound (I-14), 4-{[(5,6-dichloropyrid-3-yl)methyl](2-fluoroethyl)amino}furan-2(5H)-one] | 6.97 |  |  |  |  |  |  |  |
| CC1OC(=O)C=C1N(C)Cc1ccc(Cl)nc1 (stereo not drawn) [Compound (I-25), 4-{[(6-chloropyrid-3-yl)methyl](methyl)amino}-5-methylfuran-2(5H)-one] | 9.19 | 6.8 |  |  |  |  |  |  |
| CN(Cc1ccc(Cl)nc1)C1=CC(=O)OC1 [Compound (I-34), 4-{[(6-chloropyrid-3-yl)methyl](methyl)amino}furan-2(5H)-one] | 9.53 | 6.75 | 3 | 3 | 5 and 2 (4×) and 3 (2×) and 4 (2×) | 3 (3×) and 0 and 4 (3×) and 5 and 2 | 61 |  |
| O=C(NCCc1ncc(C(F)(F)F)cc1Cl)c1ccccc1C(F)(F)F [Fluopyram, fluopyram, reference compound] |  |  | 1 | 0 | 5 (3×) and 2 and 1 (3×) and 3 (2×) | 0 | 11 | Appearance of infected leaf tissue (symptoms of the disease) (Botrytis cinerea; 10 d post-inoculation with Botrytis cinerea, FIGS. 4-6, in words): remains dark and wet |
| CN(Cc1ccc(Cl)nc1)C1=CC(=O)CC1 [Compound (I-18), 3-{[(6-chloropyrid-3-yl)methyl](methyl)amino}cyclopent-2-en-1-one] | 7.56 |  |  |  |  |  |  |  |
| CN(Cc1cnc(Cl)c(F)c1)C1=CC(=O)OC1 [Compound (I-8), 4-{[(6-chloro-5-fluoropyrid-3-yl)methyl](methyl)amino}furan-2(5H)-one] | 7.43 | 6.6 |  |  |  |  |  |  |
| O=C1C=C(N(CCF)Cc2ccc(Cl)nc2)CO1 [Compound (I-6), 4-{[(6-chloropyrid-3-yl)methyl](2-fluoroethyl)amino}furan-2(5H)-one] | 11.08 | 7.33 |  |  |  |  |  |  |
| O=C1C=C(N(Cc2ccc(Cl)nc2)CC(F)F)CO1 [Compound (I-7), 4-{[(6-chloropyrid-3-yl)methyl](2,2-difluoroethyl)amino}furan-2(5H)-one] | 8.67 | 7.15 | 3 | 3 | 3 (6×) and 2 and 4 and 5 | 5 (3×) and 6 and 3 (2×) and 4 and 2 and 1 | 68 | Leaf biomass of tomato: Weight in g after 21 d [3]: 19.4 g; Root growth of wheat: Length in cm after 14 d [4]: 22.1 cm; Leaf biomass of wheat: Weight in g after 22 d [5]: 15.7 g |
| O=C1C=C(N(Cc2ccc(Cl)nc2)C2CC2)CO1 [Compound (I-31), 4-{[(6-chloropyrid-3-yl)methyl](cyclopropyl)amino}furan-2(5H)-one] | 11.16 | 6.78 |  |  |  |  |  |  |
